In patent US8729061B2, “Pyrrolidine derivatives” (Hoffmann-La Roche Inc., priority 2011, dated 2014) one finds IC50 data, which are given here for 17 compounds.

pIC50: −log10 of the molar value.

By pIC50 is commonly meant −log10 of the IC50, conventionally taken in molar units. A low value points to a high IC50.

Type in all cases: biochemical
In one experiment the target is human Cat K (Homo sapiens (Human), UniProt P43235). The experiment is described as follows: Cathepsin enzyme inhibition assay (fluorogenic peptide substrate), Cat K. As to conditions: enzyme 1 nM, substrate Z-Leu-Arg-AMC 20 μM, pH 6.5. Here is the method: (§1) Enzyme activity is measured by observing the increase in fluorescence intensity caused by cleavage of a peptide substrate containing a fluorophore whose emission is quenched in the intact peptide.
(§2) Assay buffer: 100 mM potassium phosphate pH 6.5, EDTA-Na 5 mM, Triton X-100 0.001%, DTT 5 mM.
(§3) Enzymes (all at 1 nM): human and mouse Cathepsin S, Cat K, Cat B, Cat L. Substrate (20 μM): Z-Val-Val-Arg-AMC, except for Cat K which uses Z-Leu-Arg-AMC (both from Bachem).
(§4) Excitation 360 nm, Emission 465 nm.
(§5) Enzyme is added to the substance dilutions in 96-well microtitre plates and the reaction is started with substrate. […] IC50 are calculated by standard methods. Inhibition of human Cat S, mouse Cat S, human Cat K, mouse Cat K, human Cat B, mouse Cat B, human Cat L and mouse Cat L have been measured separately.

Another experiment has as its target human Cat L (Homo sapiens (Human), UniProt P07711). The experiment is described as follows: Cathepsin enzyme inhibition assay (fluorogenic peptide substrate), Cat L. As to conditions: enzyme 1 nM, substrate Z-Val-Val-Arg-AMC 20 μM, pH 6.5. The method, then:
as §1, §2, §3, §4, §5

For another experiment, the target named is human Cathepsin S (Homo sapiens (Human), UniProt P25774). Put plainly: Cathepsin enzyme inhibition assay (fluorogenic peptide substrate), Cat S. The note with it: enzyme 1 nM, substrate Z-Val-Val-Arg-AMC 20 μM, pH 6.5. The method, then:
as §1, §2, §3, §4, §5

In another experiment the target is human Cat B (Homo sapiens (Human), UniProt P07858). The experiment is described as follows: Cathepsin enzyme inhibition assay (fluorogenic peptide substrate), Cat B. The note with it: enzyme 1 nM, substrate Z-Val-Val-Arg-AMC 20 μM, pH 6.5. Here is the method: as §1, §2, §3, §4, §5

human Cat L, sequence (P07711 114-333): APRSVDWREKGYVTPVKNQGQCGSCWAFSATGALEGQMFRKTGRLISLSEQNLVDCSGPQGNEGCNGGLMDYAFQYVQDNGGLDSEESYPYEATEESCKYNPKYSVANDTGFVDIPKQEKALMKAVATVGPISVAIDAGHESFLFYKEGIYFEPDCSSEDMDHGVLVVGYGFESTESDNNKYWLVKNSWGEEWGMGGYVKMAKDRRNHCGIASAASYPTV
human Cat K, sequence (P43235 115-329): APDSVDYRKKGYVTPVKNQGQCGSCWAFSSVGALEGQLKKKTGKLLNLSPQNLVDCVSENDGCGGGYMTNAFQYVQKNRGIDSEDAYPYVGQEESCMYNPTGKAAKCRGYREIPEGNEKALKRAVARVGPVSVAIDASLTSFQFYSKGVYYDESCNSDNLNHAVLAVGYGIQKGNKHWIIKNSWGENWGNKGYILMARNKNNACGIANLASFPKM
human Cathepsin S, sequence (P25774 115-331): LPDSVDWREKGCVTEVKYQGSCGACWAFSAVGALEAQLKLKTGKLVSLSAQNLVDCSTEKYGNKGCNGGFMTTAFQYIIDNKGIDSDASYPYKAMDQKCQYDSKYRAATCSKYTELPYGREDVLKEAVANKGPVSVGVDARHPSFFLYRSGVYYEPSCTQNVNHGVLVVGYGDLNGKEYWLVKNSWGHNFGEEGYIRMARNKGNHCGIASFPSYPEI

On to `CC[C@H](NC(=O)[C@@H]1C[C@@H](S(=O)(=O)c2ccc(C)cc2C)CN1C(=O)OC(C)(C)C)C(=O)C(=O)NC1CC1` [Example 1, (2S,4R)-tert-butyl 2-((S)-1-(cyclopropylamino)-1,2-dioxopentan-3-ylcarbamoyl)-4-(2,4-dimethylphenylsulfonyl)pyrrolidine-1-carboxylate], for which the negative-log IC50 (pIC50) is 5.10 against human Cat K, 5.72 against human Cat L, 9.08 at human Cathepsin S and 4.96 at human Cat B.
Regarding `CC[C@H](NC(=O)[C@@H]1C[C@@H](S(=O)(=O)c2ccc(Cl)cc2C)CN1C(=O)OC(C)(C)C)C(=O)C(=O)NC1CC1` [Example 2, (2S,4R)-tert-butyl 4-(4-chloro-2-methylphenylsulfonyl)-2-((S)-1-(cyclopropylamino)-1,2-dioxopentan-3-ylcarbamoyl)pyrrolidine-1-carboxylate], the values for the negative-log IC50 (pIC50) on human Cat K, against human Cat L and against human Cat B were 5.03, 5.59 and 4.65, respectively.
In the case of `CC[C@H](NC(=O)[C@@H]1C[C@@H](S(=O)(=O)c2ccccc2C(F)(F)F)CN1c1ccccc1[N+](=O)[O-])C(=O)C(=O)NC1CC1` [Example 3, (2S,4R)—N—((S)-1-(cyclopropylamino)-1,2-dioxopentan-3-yl)-1-(2-nitrophenyl)-4-(2-(trifluoromethyl)phenylsulfonyl)pyrrolidine-2-carboxamide], the negative logarithm of the IC50 (pIC50) is 5.13 against human Cat K, 5.81 against human Cat L, 9.00 against human Cathepsin S and 5.50 against human Cat B.
For `CC[C@H](NC(=O)[C@@H]1C[C@@H](S(=O)(=O)c2ccc(F)cc2C(F)(F)F)CN1c1cc(C)nn1C1CCC1)C(=O)C(=O)NC1CC1` [Example 4, (2S,4R)-1-(1-cyclobutyl-3-methyl-1H-pyrazol-5-yl)-N—((S)-1-(cyclopropylamino)-1,2-dioxopentan-3-yl)-4-(4-fluoro-2-(trifluoromethyl)phenylsulfonyl)pyrrolidine-2-carboxamide], the pIC50 against human Cat K was 5.23; at human Cat L it was 6.26; against human Cathepsin S, 8.53; on human Cat B, 5.53.
In the case of `CC[C@H](NC(=O)[C@@H]1C[C@@H](S(=O)(=O)c2ccccc2C(F)(F)F)CN1c1ccccc1[N+](=O)[O-])C(=O)c1nc2ccccc2o1` [Example 5, (2S,4R)-1-(2-Nitro-phenyl)-4-(2-trifluoromethyl-benzenesulfonyl)-pyrrolidine-2-carboxylic acid [(S)-1-(benzooxazole-2-carbonyl)-propyl]-amide], the pIC50 was 8.74 against human Cathepsin S and 3.98 on human Cat B.
For `CC[C@H](NC(=O)[C@@H]1C[C@@H](S(=O)(=O)c2ccc(Br)cc2C(F)(F)F)CN1c1cc(C)nn1C1CCC1)C(=O)C(=O)NC1CC1` [Example 6, (2S,4R)-4-(4-bromo-2-(trifluoromethyl)phenylsulfonyl)-1-(1-cyclobutyl-3-methyl-1H-pyrazol-5-yl)-N—((S)-1-(cyclopropylamino)-1,2-dioxopentan-3-yl)pyrrolidine-2-carboxamide], the negative logarithm of the IC50 (pIC50) against human Cat K is 6.78; against human Cat L it was 6.69; at human Cathepsin S it was 9.01; at human Cat B, 5.89.
Turning to `CC[C@H](NC(=O)[C@@H]1C[C@@H](S(=O)(=O)c2ccccc2C(F)(F)F)CN1C(=O)C1(C(F)(F)F)CC1)C(=O)C(=O)NC1CC1` [Example 7, (2S,4R)—N—((S)-1-(cyclopropylamino)-1,2-dioxopentan-3-yl)-1-(1-(trifluoromethyl)cyclopropanecarbonyl)-4-(2-(trifluoromethyl)phenylsulfonyl)pyrrolidine-2-carboxamide], the pIC50 was 4.95 against human Cat K, 5.52 at human Cat L, 8.42 against human Cathepsin S and 5.73 against human Cat B.
Take `CC[C@H](NC(=O)[C@@H]1C[C@@H](S(=O)(=O)c2ccccc2Cl)CN1C(=O)C1(c2ccc(Cl)cc2)CC1)C(=O)C(=O)NC1CC1` [Example 8, (2S,4R)-1-(1-(4-chlorophenyl)cyclopropanecarbonyl)-4-(2-chlorophenylsulfonyl)-N—((S)-1-(cyclopropylamino)-1,2-dioxopentan-3-yl)pyrrolidine-2-carboxamide]: the negative-log IC50 (pIC50) against human Cat K is 7.56; at human Cat L, 8.37; against human Cathepsin S, 9.53; on human Cat B it was 7.20.
For the compound `CCC[C@H](NC(=O)[C@@H]1C[C@@H](S(=O)(=O)c2ccccc2Cl)CN1C(=O)C1(c2ccc(Cl)cc2)CC1)C(=O)C(=O)NC1CC1` [Example 9, (2S,4R)-1-(1-(4-chlorophenyl)cyclopropanecarbonyl)-4-(2-chlorophenylsulfonyl)-N—((S)-1-(cyclopropylamino)-1,2-dioxohexan-3-yl)pyrrolidine-2-carboxamide], the pIC50 against human Cat K is 7.71; at human Cat L, 8.33; on human Cathepsin S, 9.44; against human Cat B, 7.36.
For `CC[C@H](NC(=O)[C@@H]1C[C@@H](S(=O)(=O)c2ccc(OCC(F)(F)F)cc2Cl)CN1C(=O)C1(c2ncc(Cl)cc2F)CC1)C(=O)C(=O)NC1CC1` [Example 10, (2S,4R)-1-(1-(5-chloro-3-fluoropyridin-2-yl)cyclopropanecarbonyl)-4-(2-chloro-4-(2,2,2-trifluoroethoxy)phenylsulfonyl)-N—((S)-1-(cyclopropylamino)-1,2-dioxopentan-3-yl)pyrrolidine-2-carboxamide], in that order: 6.93, 7.26, 8.54 and 6.08.
With `CC[C@H](NC(=O)[C@@H]1C[C@@H](S(=O)(=O)c2ccc(OCC(F)(F)F)cc2C(F)(F)F)CN1C(=O)C1(c2ccc(Cl)cc2)CC1)C(=O)C(=O)NC1CC1` [Example 11], the pIC50 at human Cat K was 6.41; on human Cat L it was 7.20; at human Cathepsin S, 8.86; on human Cat B, 6.54.
For `CC[C@H](NC(=O)[C@@H]1C[C@@H](S(=O)(=O)c2ccccc2Cl)CN1C(=O)C1(c2ccc(I)cc2)CC1)C(=O)C(=O)NC1CC1` [Example 17, (2S,4R)-4-(2-chlorophenylsulfonyl)-N—((S)-1-(cyclopropylamino)-1,2-dioxopentan-3-yl)-1-(1-(4-iodophenyl)cyclopropanecarbonyl)pyrrolidine-2-carboxamide], the results for the negative-log IC50 (pIC50) against human Cat K, against human Cat L and on human Cathepsin S were 7.52, 8.00 and 9.19, respectively.
For `CC(C)[C@H](NC(=O)[C@@H]1C[C@@H](S(=O)(=O)c2ccccc2Cl)CN1C(=O)C1(c2ccc(Cl)cc2)CC1)C(=O)C(=O)NC1CC1` [Example 28, (2S,4R)-1-(1-(4-chlorophenyl)cyclopropanecarbonyl)-4-(2-chlorophenylsulfonyl)-N—((S)-1-(cyclopropylamino)-4-methyl-1,2-dioxopentan-3-yl)pyrrolidine-2-carboxamide], the values for the pIC50 against human Cat L, at human Cathepsin S and against human Cat B were 8.28, 9.48 and 7.01, respectively.
For `CCCCNC(=O)C(=O)[C@H](CC)NC(=O)[C@@H]1C[C@@H](S(=O)(=O)c2ccccc2Cl)CN1C(=O)C1(c2ccc(Cl)cc2)CC1` [Example 31, (2S,4R)—N—((S)-1-(butylamino)-1,2-dioxopentan-3-yl)-1-(1-(4-chlorophenyl)cyclopropanecarbonyl)-4-(2-chlorophenylsulfonyl)pyrrolidine-2-carboxamide], the pIC50 on human Cat K was 7.45; on human Cat L, 7.95; against human Cat B it was 7.32.
With `CCC[C@H](NC(=O)[C@@H]1C[C@@H](S(=O)(=O)c2ccc(Cl)cc2Cl)CN1C(=O)C1(c2ccc(Cl)cc2)CC1)C(=O)C(=O)NC1CC1` [Example 42, (2S,4R)-1-(1-(4-chlorophenyl)cyclopropanecarbonyl)-N—((S)-1-(cyclopropylamino)-1,2-dioxohexan-3-yl)-4-(2,4-dichlorophenylsulfonyl)pyrrolidine-2-carboxamide], the values for the pIC50 against human Cat K, on human Cathepsin S and against human Cat B were 7.54, 9.20 and 6.94, respectively.
As to `CCNC(=O)C(=O)[C@H](CC)NC(=O)[C@@H]1C[C@@H](S(=O)(=O)c2ccccc2Cl)CN1C(=O)C1(c2ccc(Cl)cc2)CC1` [Example 43, (2S,4R)-1-(1-(4-chlorophenyl)cyclopropanecarbonyl)-4-(2-chlorophenylsulfonyl)-N—((S)-1-(ethylamino)-1,2-dioxopentan-3-yl)pyrrolidine-2-carboxamide], the negative-log IC50 (pIC50) was 7.87 against human Cat L, 9.29 against human Cathepsin S and 6.95 on human Cat B.
For `CC(C)[C@H](NC(=O)[C@@H]1C[C@@H](S(=O)(=O)c2ccccc2Cl)CN1C(=O)C1(c2ncc(Cl)cc2F)CC1)C(=O)C(=O)NC1CC1` [Example 58, (2S,4R)-1-(1-(5-chloro-3-fluoropyridin-2-yl)cyclopropanecarbonyl)-4-(2-chlorophenylsulfonyl)-N—((S)-1-(cyclopropylamino)-4-methyl-1,2-dioxopentan-3-yl)pyrrolidine-2-carboxamide], the pIC50 is 7.31 at human Cat K, 9.05 against human Cat L and 6.49 on human Cat B.
